From patent US9045474B2, “Compounds and compositions for mitigating tissue damage and lethality” (The Regents of the University of California, priority 2010, dated 2015)
Entries after “also recorded” stand apart in the source; their conditions may differ.

Assays:
DBA/2 Mice = experiment: Radiation-induced leukemia model; type: in vivo, mouse
Method: DBA/2 Mice (15/group) were irradiated with ^60Co (3.5 Gy, 0.6 Gy/min) to induce leukemia. One group received no drug, another group of mice were injected s.c. with Yel001 or Yel002 (25 mg/kg) with 5 injections for 5 days. Leukemogenesis was monitored for 90 days. Blood was drawn at days −1, 21, 42, and 63 to monitor for leukemia every 21 days to monitor for leukemia development using WBCs and differentials. This leukemia model takes advantage of non-targeted radiation effects, which are important to the carcinogenic process. This model has a shorter latency period to gamma radiation-induced leukemia (latency to 50% leukemic population: 107 days) than other murine leukemia models such as CBA mouse (399 days: 50% leukemic population). DBA/2 mice were irradiated with 3.5 Gy (^60Co 0.60 Gy/min) and then injected intravenously with (5×10^6) FDC-P1 cells. Animals were then monitored 5×/weekly for 10 weeks-post-injection and then daily after 10 weeks-post-injection until leukemia development and/or euthanasia. After the animal has been determined to be leukemic using hematological parameters, it is euthanized and a necropsy is conducted to definitively determine a conclusive diagnosis of leukemia. Control animals not developing leukemia are assessed at 270 days post experiment initiation. At that time they are euthanized and necropsied.

C3H mice = experiment: Toxicity experiments in C3H mice; type: in vivo, mouse; details: 150 mg/kg, 75 mg/kg and 5 mg/kg; 120 days following the injections
Method: Having seen no adverse effects of the chemicals alone on mammalian cell models we performed a preliminary toxicity study on a group of C3H mice. […] In a pilot reproductive toxicity study, 12, week old female mice were paired up with 6 week old male mice and checked daily for the presence of a characteristic “plug” in the female vaginal canal as an indication of mating. As soon as the mating has occurred, males were removed and the females were treated weekly with 75 mg/kg s.c. throughout the gestation period and until the pups were weaned off (8 week treatment course). After weaning, treatment of the offspring was initiated at the same 75 mg/kg s.c. weekly dose. Controls were injected s.c. on the same schedule with the carrier (1N saline). Five treated and five control females gave birth to the same average number of pups per litter (n=6) without any detectable toxicities to the other. 3 litters of each treated and control groups survived to continue the study. No pathologies, toxicities nor adverse effects were observed. There are no developmental or teratogenic deficiencies in mice, average weights (21 g) are the same in both groups also.

OMM lymphocytes = experiment: γH2AX assay, cigarette smoke extract induced double strand breaks; type: cell-based, mouse; details: 3 puff/mL cigarette smoke extract, 6 and 24 hrs, Ogg−/− Myh−/− mice
Method: Whole peripheral blood lymphocytes were taken from WT, and OMM double knockout mice (mice deficient in DNA repair pathways observed in smoking-induced lung cancer) and were administered 3 puff/mL of Cigarette smoke extract (CSE) alone or co-incubation of 3 puff/mL Cigarette smoke extract and 10 uM Yel 002 for 3, 6, and 24 hrs and the amount of double stranded breaks were assessed via γH2AX assay. […] Statistical significance was assessed via a 1 way ANOVA test with Tukey's post-hoc analysis. […] Statistical significance was assessed via a 1 way ANOVA test with Tukey's post-hoc analysis. N=3 in each group.

## COc1ccc2cc(-c3nc4ccc(C)cn4c3NCc3ccco3)c(=O)[nH]c2c1 [Yel002]
DBA/2 Mice; 3.5 Gy, 25 mg/kg s.c., no drug also within 42 days
  first development of leukemia: 42 days
DBA/2 Mice; Day 94, 3.5 Gy, 25 mg/kg s.c. 5 injections, irradiated controls 30%
  mice exhibiting leukemia: 10%
DBA/2 Mice; Day 270, irradiated population 90%
  leukemia frequency: 40%
DBA/2 Mice; FIG. 17
  latency to leukemia development: increased latency to leukemia development
DBA/2 Mice; FIG. 18
  frequency of radiation induced and/or spontaneous cancer: effective for reducing the frequency of radiation induced and spontaneous cancer
C3H mice
  adverse physiological or behavioral effects: did not show any adverse physiological nor behavioral adverse effects
OMM lymphocytes
  double strand breaks / average γH2AX per cell: reduces the number of DNA double strand breaks
OMM lymphocytes; listed as YEL 002
  double strand breaks / average γH2AX per cell: significantly reduces cigarette smoke induced double strand breaks; also recorded: significantly decreases the amount of average γH2AX per cell
